Values quoted from earlier work as cited in patent US20150017236A1, “PHARMACEUTICAL COMPOSITIONS OF THYROID HORMONE” (priority 2013, published 2015).

Conditions: tablet formulation of levothyroxine sodium; storage

decomposition of levothyroxine: approximately 1 percent per month
Structure (SMILES): N[C@@H](Cc1cc(I)c(Oc2cc(I)c(O)c(I)c2)c(I)c1)C(=O)O [levothyroxine sodium, sodium (S)-2-amino-3-[4-(4-hydroxy-3,5-diiodphenoxy)-3,5-diiodophenyl]propionate]
